Assays:
human liver microsomes = experiment: In vitro metabolism test; format: in vitro ADME; details: 0.4mg protein/ml human liver microsomes, 0.02 mM test compound, NADPH-generating system, 37°C for 30 minutes, HPLC
Procedure: 0.05 mM EDTA-0.1M phosphate buffer (pH 7.4), distilled water, 0.4mg protein/ml human liver microsomes and 0.02 mM test compound were mixed in a test tube under ice-cooling. After the mixture was shaken at 37°C for 2 minutes beforehand, the mixture was added with a ready-mix of NADPH-generating system and then shaken at 37°C for 30 minutes. After the incubation, the reaction was stopped by cooling with ice. The mixture was added with acetonitrile and well mixted, and then centrifuged at 3000 rpm for 10 minutes. The resulting supernatant was subjected to HPLC measurement, and the residual rate of test compound was calculated from the ratio of a peak area of an unchanged compound in the reaction sample in comparison with a non-reaction mixture. Preparations of reagents and reaction mixtures were carried out by referring to Shin Seikagaku Koza, Vol. 5: Biological oxidation and drug metabolism edited by The Japanese Biochemical Society. […]

[1] = test system: bronchoconstriction induced by leukotriene D4; experiment: Inhibitory effect on bronchoconstriction induced by leukotriene D4 (Konzett-Roessler); format: in vivo, Male Hartley guinea-pigs; details: Cavia porcellus; oral administration 2 hours before leukotriene D4 (1 µg/kg, cervical vein), anesthetized guinea-pigs, indomethacin and propranolol pretreated
Procedure: Airway resistance was evaluated according to the method of Konzett-Roessler [Naunyn-Schmiedberg's Arch. Exp. Path. Pharmak., Vol. 195, 71 (1940)]. Male Hartley guinea-pigs fasted beforehand for 24 hours were anesthetized with urethane, and then overflowed air volume was measured under artificial ventilation as an index of bronchoconstriction. Various doses of test compounds suspended in 5% gum Arabic were administered orally, and after 2 hours, leukotriene D4 (1 µg/kg; ULTRA FINE) was administered through the cervical vein. Then, values at 2 minutes were measured when maximum responses were obtained. Inhibitory rates compared to the control group were calculated based on the response rate normalized by the overflowed volume at complete closure as 100% bronchoconstriction rate, and the 50% inhibitory doses (ED50 values) were calculated using dose-inhibitory rate curves. Indomethacin (2mg/kg, i.v.) and propranolol (1mg/kg, i.v.) were administered at 10 minutes and 5 minutes before the administration of leukotriene D4, respectively. […]

[2] = test system: bronchoconstriction induced by U-46619; experiment: Inhibitory effect on bronchoconstriction induced by U-46619 (Konzett-Roessler); format: in vivo, Male Hartley guinea-pigs; details: Cavia porcellus; 0.3 mg/kg orally, 2 hours before U-46619 (4 µg/kg, cervical vein), anesthetized guinea-pigs, compared to control group; read-out: Inhibition rate (%)
Procedure: Airway resistance was evaluated according to the method of Konzett-Roessler [Naunyn-Schmiedberg's Arch. Exp. Path. Pharmak., Vol. 195, 71 (1940)]. Male Hartley guinea-pigs (about 400g wt.) were anesthetized with urethane (1.5g/kg, i.p.) and ventilated by an artificial respirator (Model 683; Harvard). At the same time, overflowed air volume above the pressure of about 12cm H2O was measured by using a sensor (Model 7020; Ugo Basile) and the value was used as an index of bronchoconstriction. 0.3 mg/kg (5 ml/kg) of test compounds suspended in 5% gum Arabic was administered orally to the guinea-pigs fasted beforehand for 24 hours. After 2 hours, U-46619 (4 µg/kg; Cayman) was administered through the cervical vein, and then maximal response was measured. Inhibitory rates compared to the control group were calculated based on the response rate normalized by the complete closure as 100%. […]

[3] = molecular target: T1, thromboxane A2 / prostaglandin H2 receptor (Cavia porcellus, UniProt A0A286Y4I8); experiment: Thromboxane A2 antagonistic effect (isolated trachea, U-46619 concentration-response curves, Schild); design: species or system male Hartley guinea-pigs; details: isolated guinea-pig trachea, contraction by U-46619, test compound treatment 5 minutes, indomethacin 3 × 10^-6M, method of Schild
T1 construct: tracheas were isolated from male Hartley guinea-pigs, and spiral specimens of approximately 2 cm length were prepared; from tissue; host or cells: isolated guinea-pig trachea (spiral strips)
T1 sequence (A0A286Y4I8 1-347): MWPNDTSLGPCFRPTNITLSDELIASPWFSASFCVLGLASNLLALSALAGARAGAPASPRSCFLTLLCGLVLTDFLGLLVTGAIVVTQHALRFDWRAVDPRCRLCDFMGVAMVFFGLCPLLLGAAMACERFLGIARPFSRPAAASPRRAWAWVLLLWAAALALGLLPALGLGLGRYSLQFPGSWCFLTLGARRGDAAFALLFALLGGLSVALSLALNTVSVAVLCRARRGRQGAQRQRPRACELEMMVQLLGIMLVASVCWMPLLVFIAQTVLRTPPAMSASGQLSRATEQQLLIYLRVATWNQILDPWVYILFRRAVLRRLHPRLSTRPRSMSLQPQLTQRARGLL
Procedure: According to an ordinary method, tracheas were isolated from male Hartley guinea-pigs, and spiral specimens of approximately 2 cm length were prepared. These specimens were suspended in organ baths that contained Krebs-Henseleit solution at 37°C under a resting tension of 1.5 g, and the changes in isometric tension were recorded. The first concentration-response curves were obtained by cumulative applications of 1 × 10^-9 to 3 × 10^-7M of U-46619 (Cayman, thromboxane A2 / prostaglandin H2 receptor agonist) in the organ baths. After treatments with test compounds at adequate concentrations for 5 minutes, the second concentration-response curves were obtained in the same manner as the first applications. pKB values were calculated using these two concentration-response curves according to the method of Schild [Pharmacological Review, Vol. 9, 242 (1957)]. Indomethacin (3 × 10^-6M, Sigma) was added beforehand to the organ bath to eliminate possible affections by thromboxane A2 and prostaglandin produced endogenously [Japan J. Pharmacol., Vol. 60, 227 (1992)].

leukotriene D4 = molecular target: T2, leukotriene D4 (Cavia porcellus, UniProt Q2NNR5); experiment: Leukotriene D4 antagonistic effect (isolated trachea, leukotriene D4 concentration-response curves, Schild); design: species or system male Hartley guinea-pigs; details: isolated guinea-pig trachea, contraction by leukotriene D4, test compound treatment 30 minutes, indomethacin 1 × 10^-6M, method of Schild
T2 construct: tracheas were isolated from male Hartley guinea-pigs, and spiral specimens of approximately 2 cm length were prepared; from tissue; host or cells: isolated guinea-pig trachea (spiral strips)
T2 sequence (Q2NNR5 1-340): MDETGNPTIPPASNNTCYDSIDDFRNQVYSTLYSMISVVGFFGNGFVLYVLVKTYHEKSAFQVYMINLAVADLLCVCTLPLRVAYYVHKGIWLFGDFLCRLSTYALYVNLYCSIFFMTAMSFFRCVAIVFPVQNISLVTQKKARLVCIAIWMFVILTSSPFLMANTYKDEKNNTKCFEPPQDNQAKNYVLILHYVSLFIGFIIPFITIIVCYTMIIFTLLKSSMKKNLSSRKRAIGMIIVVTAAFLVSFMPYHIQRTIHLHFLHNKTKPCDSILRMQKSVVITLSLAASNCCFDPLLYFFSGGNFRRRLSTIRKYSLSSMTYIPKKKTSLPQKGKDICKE
Procedure: According to an ordinary method, tracheas were isolated from male Hartley guinea-pigs, and spiral specimens of approximately 2 cm length were prepared. These specimens were suspended isotonically in organ baths that contained Krebs-Henseleit solution at 37°C under a resting tension of 0.5g. After contractions with acetylcholine (1 × 10^-5M; Ovisot for injection, Daiichi Seiyaku), and the first concentration-response curves were obtained by cumulative applications of 10^-10 to 10^-8M of leukotriene D4 (ULTRA FINE) in the organ baths. After treatments with test compounds at adequate concentrations for 30 minutes, the second concentration-response curves were obtained in the same manner as the first applications. pKB values were calculated using these two concentration-response curves according to the method of Schild [Pharmacological Review, Vol. 9, 242 (1957)]. Indomethacin (1 × 10^-6M, Sigma) was added beforehand to the organ bath to eliminate possible affections by thromboxane A2 and prostaglandin produced by stimulus of leukotriene D4 [Japan J. Pharmacol., Vol. 60, 227 (1992)]. […]

- Residual rate (%) (human liver microsomes): 84%
- Kb [3]: 0.398 nM
- Kb (leukotriene D4): 251 nM
SMILES: O=C(O)CCCc1ccc(C(CCCCCC(F)(F)F)NS(=O)(=O)c2ccc(F)cc2)s1 (centres unmarked) [Example 172, 4-[5-[7,7,7-Trifluoro-1-(4-fluorophenylsulfonylamino)heptyl]-2-thienyl]butyric Acid]
- ED50 [1]: 2.4 mg/kg
- inhibition in vivo at 0.3 mg/kg [2]: 73%

Reference: patent EP0943606A1, “BENZENESULFONAMIDE DERIVATIVES AND DRUGS CONTAINING THE SAME” (HOKURIKU SEIYAKU CO., LTD., priority 1996, dated 1998)
